In brackets after ≈: the same amount, converted by molar mass.
Experiments:
Aspergillus fumigatus = assay: Test 2: Action against Aspergillus fumigatus (in vitro), MIC; format: cell-based, Aspergillus fumigatus IFM 40808; conditions: A. fumigatus IFM 40808, MOPS-containing RPMI 1640, pH 7, almar Blue, 35° C., 48 hours
Description: Test 2: Action Against Aspergillus fumigatus (in vitro)
They were incubated at 35° C. for 48 hours. Judgment was made visually and the minimum medicament concentration not permitting a change into red (the medium maintained blue color) was designated as an MIC value (μg/ml).

Candida albicans = assay: Test 1: Action against Candida albicans (in vitro), suppression of mycelial type growth; format: cell-based, Candida albicans ATCC 44859; conditions: ATCC44859, C. albicans ATCC 44859, 10% fetal-bovine-serum added MEM, 37° C., 24 hours, CO2 incubator, read-out: Terminal point (minimum medicament concentration permitting the apparent suppression of mycerial type growth)
Description: Test 1: Action Against Candida albicans (in vitro)
The resulting mixture was incubated at 37° C. for 24 hours in a CO2 gas incubator. After incubation, a morphological change of C. albicans was observed under an inverted microscope. The minimum medicament concentration permitting the apparent suppression of mycerial type growth compared with that of a medicament-free control was designated as a terminal point (ng/ml).

C. albicans IFM 40009 = assay: Test 3: Action against Candida albicans (in vivo), systemic infection in mice; conditions: i.v. C. albicans 3.0×10^6 cells/mouse, oral 1.25 mg/kg each, four times; for Surviving mice on Day 14 (number of surviving mice/total number in group): Day 14, control 0/11; for Average Survival days: Kaplan-Meier method (Cox mantel test), control 4.5
Description: Test 3: Action Against Candida albicans (in vivo)
After 4-week-old, male, ICR (CRJ: CD-1) mice were fasted for 6 hours, C. albicans IFM 40009 was inoculated to the tail vein of each of the mice to give an amount of 3.0×10^6 cells/mouse, whereby infection was caused. A control group consisted of 11 mice, while a medicament-administered group consisted of 5 mice. The medicament dissolved in 20% polyethylene glycol was orally administered 1 hour after the inoculation of the fungus and then consecutively once a day 24 hours after the inoculation, four times in total, at 1.25 mg/kg each. The survival condition on Day 14 after the infection was compared. In addition, the survival days of the control group and the medicament-administered group were detected by the Kaplan-Meier method (Cox mantel test). Incidentally, Fluconazole was employed as a medicament for comparison.

| Compound | MIC (Aspergillus fumigatus) [mg/L] | minimal effective concentration (Candida albicans) [µg/mL] | Surviving mice on Day 14 (number of surviving mice/total number in group) (C. albicans IFM 40009) | Average Survival days (C. albicans IFM 40009) [days] |
| --- | --- | --- | --- | --- |
| CCSC(F)(F)C(Cn1cncn1)(OC)c1ccc(F)cc1F (stereo not drawn) [Example 13, 1-[2-(2,4-difluorophenyl)-3-ethylthio-3,3-difluoro-2-methoxypropyl]-1H-1,2,4-triazole] | 8 (≈ 22.9 µM) | 0.0313 | – | – |
| CCS(=O)(=O)C(F)(F)C(O)(Cn1cncn1)c1ccc(Cl)cc1Cl (stereo not drawn) [Example 18, 2-(2,4-dichlorophenyl)-1-(ethylsulfonyl)-1,1-difluoro-3-(1H-1,2,4-triazol-1-yl)-2-propanol] | 8 (≈ 20 µM) | 0.0156 | – | – |
| OC(Cn1cncn1)(Cn1cncn1)c1ccc(F)cc1F [Fluconazole, reference compound] | > 128 | 0.25 | 1/5 | 11.0 |
| CCSC(F)(F)C(O)(Cn1cncn1)c1ccc(Cl)cc1Cl (stereo not drawn) [Example 12, 2-(2,4-dichlorophenyl)-1-(ethylthio)-1,1-difluoro-3-(1H-1,2,4-triazol-1-yl)-2-propanol] | 1 (≈ 2.72 µM) | 0.0039 | – | – |
| CCS(=O)(=O)C(F)(F)C(O)(Cn1cncn1)c1ccc(F)cc1F (racemic) [Example 15, 2-(2,4-difluorophenyl)-1-(ethylsulfonyl) -1,1-difluoro-3-(1H-1,2,4-triazole-1-yl)-2-propanol] | 8 (≈ 21.8 µM) | 0.0313 | 4/5 | 14.00 |
| CCS(=O)(=O)C(F)(F)C(O)(Cn1cncn1)c1ccc(F)cc1F (single isomer, unassigned; (-)) [Example 21(2), (-)-2-(2,4-difluorophenyl)-1-(ethylsulfonyl)-1,1-difluoro-3-(1H-1,2,4-triazol-1-yl)-2-propanol] | 4 (≈ 10.9 µM) | 0.0156 | – | – |

Further lines, with some results ahead:

| MIC (Aspergillus fumigatus) [mg/L] | Compound | minimal effective concentration (Candida albicans) [µg/mL] | Surviving mice on Day 14 (number of surviving mice/total number in group) (C. albicans IFM 40009) | Average Survival days (C. albicans IFM 40009) [days] |
| --- | --- | --- | --- | --- |
| 8 (≈ 25.2 µM) | CCSC(F)(F)C(O)(Cn1cncn1)c1ccc(F)cc1 (stereo not drawn) [Example 10, 1-(ethylthio)-1,1-difluoro-2-(4-fluorophenyl)-3-(1H-1,2,4-triazol-1-yl)-2-propanol] | 0.0313 | – | – |
| 8 (≈ 22.9 µM) | CCS(=O)(=O)C(F)(F)C(O)(Cn1cncn1)c1ccc(F)cc1 (single isomer, unassigned; (-)) [Example 22(2), (-)-1-(Ethylsulfonyl)-1,1-difluoro-2-(4-fluorophenyl)-3-(1H-1,2,4-triazol-1-yl)-2-propanol] | 0.0156 | – | – |
| 16 (≈ 43.6 µM) | CCSC(F)(F)C(O)(Cn1cncn1)c1ccc(C(F)(F)F)cc1 (stereo not drawn) [Example 11, 1-(ethylthio)-1,1-difluoro-2-(4-trifluoromethylphenyl)-3-(1H-1,2,4-triazol-1-yl)-2-propanol] | 0.0078 | – | – |
| 2 (≈ 5.96 µM) | CCSC(F)(F)C(O)(Cn1cncn1)c1ccc(F)cc1F (stereo not drawn) [Example 9, 2-(2,4-difluorophenyl)-1-(ethylthio)-1,1-difluoro-3-(1H-1,2,4-triazol-1-yl)-2-propanol] | 0.0078 | – | – |
